Results reported in patent US4001272A, “Herbicidal 2-fluoro-4-halo-phenyl-4,5,6,7-tetrahydro-2H-isoindole-1,3-diones” (E. I. Du Pont de Nemours and Company, priority 1974, dated 1977).

Key:
Assay type in all cases: in vivo
naturally emerging weeds = assay: Test B: control of naturally emerging weeds, comparison of treatments
Source text: (§1) Test B involved a field sown to carrots and in which the following weed species emerged naturally: crabgrass (Digitaria sanquinalis), foxtails (Setaria spp.), barnyardgrass (Echinochloa crusgalli), pigweed (Amaranthus spp.), ragweed (Ambrosia artemisiifolia), velvetleaf (Abutilon theophrasti), smartweed (Polygonum spp.) and lambsquarters (Chenopodium album). Sixteen days after sowing, when all species of weeds had emerged, the plants were sprayed overall with a 50% wettable powder formulation of 2-(4-chloro-2-fluorophenyl)4,5,6,7-tetrahydro-2H-isoindole-1,3dione (Treatment I) in the form of an aqueous suspension, at rates of 0.5, 1.0, 2.0 and 4.0 kg/ha, and with 2-(4-chlorophenyl)-4,5,6,7-tetrahydro-2H-isoindole-1,3-dione (Treatment II) in the same form and at the same rates. The spray volume was 425 l/ha. The surfactant Tween 20* was added to all treatments in a concentration of 0.1% by weight. Six weeks after treatment, visual observations were made of percent weed control obtained and, for carrots, crop response.
(§2) *Tween 20 -- A trademark of ICI of America which is the reaction product of sorbitan monolaurate with an average of 20 moles of ethylene oxide.

[1] = tested on: pigweed (Amaranthus spp.); assay: Test A: field test, percent weed control of pigweed; details: seven weeks after treatment
Source text: (§3) In test A, soybeans, peanuts, lima beans, green beans and squash were planted in a field infested with the following weed seeds: crabgrass (Digitaria sanquinalis), foxtails (Setaria spp.), barnyardgrass (Echinochloa crusgalli), pigweed (Amaranthus spp.), ragweed (Ambrosia artemisiifolia), velvetleaf (Abutilon theophrasti), purslane (Portulaca oleracea) and flower-of-an-hour (Hibiscus trionum). A 50% wettable powder formulation of 2-(4-chloro-2-fluorophenyl)-4,5,6,7-tetrahydro-2H-isoindole-1,3-dione was applied in the form of an aqueous suspension at rates of 0.125, 0.25, 0.5 and 1.0 kg/ha, each treatment replicated twice. The plots were rated for percent weed control and crop response seven weeks after treatment. Crop response was expressed on a scale of 0 = no injury to 10 = complete kill.

soybeans = assay: Test A: field test, crop response of soybeans; details: seven weeks, 0 = no injury to 10 = complete kill
Source text: as §3

lima beans = assay: Test A: field test, crop response of lima beans; details: seven weeks, 0 = no injury to 10 = complete kill
Source text: as §3

carrots = assay: Test B: overall spray in carrot field after weed emergence, crop response of carrots; details: six weeks after treatment, 0.1% Tween 20
Source text: as §1, §2

Row | Structure (SMILES) | control of crabgrass, foxtails and barnyardgrass, in words (naturally emerging weeds; compared to Treatment II) | % control results, in words (naturally emerging weeds; eight naturally emerging weeds, versus Treatment II) | % Control, Pigweed ([1]; 0.125 kg/ha) [%] | % Control, Pigweed ([1]; 0.25 kg/ha) [%] | % Control, Pigweed ([1]; 0.50 kg/ha) [%] | % Control, Pigweed ([1]; 1.00 kg/ha) [%] | Crop Response, Soybeans (soybeans; 0.125 kg/ha) | Crop Response, Soybeans (soybeans; 0.25 kg/ha) | Crop Response, Soybeans (soybeans; 0.50 kg/ha) | Crop Response, Soybeans (soybeans; 1.00 kg/ha) | Crop Response, Lima beans (lima beans; 0.125 kg/ha) | Crop Response, Lima beans (lima beans; 0.25 kg/ha) | Crop Response, Lima beans (lima beans; 0.50 kg/ha) | Crop Response, Lima beans (lima beans; 1.00 kg/ha) | Crop Response, Carrots (carrots; 0.5 kg/ha) | Crop Response, Carrots (carrots; 1.0 kg/ha) | Crop Response, Carrots (carrots; 2.0 kg/ha) | Crop Response, Carrots (carrots; 4.0 kg/ha)
1 | O=C1C2=C(CCCC2)C(=O)N1c1ccc(Cl)cc1F [Treatment I, 2-(4-chloro-2-fluorophenyl)-4,5,6,7-tetrahydro-2H-isoindole-1,3-dione] | outstanding when compared to Treatment II | clearly superior to Treatment II | 90 | 98 | 95 | 100 | 0 | 1.5 | 3 | 7.5 | 0 | 1 | 4 | 8.5 |  |  |  | 
2 | O=C1C2=C(CCCC2)C(=O)N1c1ccc(Cl)cc1 [Treatment II, 2-(4-chlorophenyl)-4,5,6,7-tetrahydro-2H-isoindole-1,3-dione] |  |  |  |  |  |  |  |  |  |  |  |  |  |  | 4 | 4 | 4 | 4
